These results are taken from the RepoRT retention time repository.

The data set in a line: Waters ACQUITY UPLC BEH C18, 100 × 2.1 mm, 1.7 µm, 40 °C, 0.3 to 0.4 mL/min, estimated dead time 0.63 min; A: water + 0.1% formic acid; B: methanol + 0.1% formic acid; gradient (min/%B) 0/0.5 0.1/0.5 10/80 10.1/99.5 12/99.5. The following applies: stereoisomer not certain.
For `O=C(O)C=Cc1ccccc1`, the LC retention time is 5.42 min.

As for `C[n+]1cc2c3c(ccc2c2ccc4cc5c(cc4c21)OCO5)OCO3`, the LC retention time is 4.85 min.

As for `CC1OC(OC2C(OC3C(OC4CCC5(C)C(CCC6(C)C5CC=C5C7CC(C)(C)CC(O)C7(C)CCC56C)C4(C)CO)OC(C(=O)O)C(O)C3O)OCC(O)C2O)C(O)C(O)C1O` (configuration not stated), the LC retention time is 7.28 min.

For the compound `COc1cc2c(=O)c(-c3ccc(O)cc3)coc2cc1O`, the LC retention time is 5.3 min.

As for `CS(=O)CCCCCCCN` (configuration not stated), the LC retention time is 2.08 min.

For `COc1cc2c(cc1OC)C1C(C)c3ccc(OC)c(OC)c3CN1CC2` (configuration not stated), the LC retention time is 4.86 min.

On to `COc1cc(C(C)=O)cc(OC)c1O`, for which the LC retention time is 4.31 min.

Regarding `CCC1CN2CCc3c([nH]c4ccccc34)C2CC1C(=COC)C(=O)OC` (configuration not stated), the LC retention time is 5.85 min.

Consider `CC1(C)CC2C3=CCC4C5(C)CCC(OC6OC(C(=O)O)C(O)C(O)C6OC6OC(CO)C(O)C(O)C6OC6OC(CO)C(O)C(O)C6O)C(C)(CO)C5CCC4(C)C3(C)CCC2(C)C(O)C1O` (configuration not stated), for which the LC retention time is 5.81 min.

On to `O=c1oc2cc(OC3OC(CO)C(O)C(O)C3O)ccc2c2oc3cc(O)ccc3c12` (configuration not stated), for which the LC retention time is 4.38 min.

Turning to `COc1cc(CC2C(=O)OCC2Cc2ccc(OC)c(OC)c2)ccc1O` (configuration not stated), the LC retention time was 6.63 min.

Turning to `CC1OC(OCC2OC(Oc3c(-c4ccc(O)c(O)c4)oc4cc(O)cc(O)c4c3=O)C(O)C(O)C2O)C(O)C(O)C1O` (configuration not stated), the LC retention time was 3.86 min.

As to `O=c1c(-c2ccc(O)cc2)coc2c(C3OC(CO)C(O)C(O)C3O)c(O)ccc12` (configuration not stated), the LC retention time was 3.27 min.

With `CC=C1CC(C)C(C)(O)C(=O)OCC2=CCN3CCC(OC1=O)C23` (configuration not stated), the LC retention time is 3.8 min.

Consider `CCC(C)C(N)C(=O)NC(CCC(=O)O)C(=O)O` (configuration not stated), for which the LC retention time was 1.98 min.

In the case of `OCC1OC(Oc2cc3c(O)cc(O)cc3[o+]c2-c2cc(O)c(O)c(O)c2)C(O)C(O)C1O` (configuration not stated), the LC retention time was 2.61 min.

Regarding `CC(=O)c1cccc2oc(=O)[nH]c12`, the LC retention time is 3.93 min.

`CC(C)=CCc1c(O)ccc2c1OC(c1ccc(O)cc1)CC2=O` (configuration not stated): the LC retention time is 8.93 min.

As for `O=c1cc(-c2ccc(OC3OC(CO)C(O)C(O)C3O)c(O)c2)oc2cc(O)cc(O)c12` (configuration not stated), the LC retention time was 4.45 min.

On to `CC(CN)CCC1(O)OC2CC3C4CCC5CC(OC6OC(CO)C(OC7OC(CO)C(O)C(OC8OCC(O)C(O)C8O)C7OC7OC(CO)C(O)C(O)C7O)C(O)C6O)CCC5(C)C4CCC3(C)C2C1C` (configuration not stated), for which the LC retention time was 4.31 min.

Turning to `CC1OC(OC2C(COC3OC(CO)C(O)C(O)C3O)OC(OC3CCC4(C)C(CCC5(C)C4C=CC4=C6CC(C)(C)CCC6(CO)C(O)CC45C)C3(C)C)C(O)C2O)C(O)C(O)C1O` (configuration not stated), the LC retention time is 6.29 min.

For `COc1ccc(CCC(=O)c2c(O)cc(OC3OC(CO)C(O)C(O)C3OC3OC(C)C(O)C(O)C3O)cc2O)cc1O` (configuration not stated), the LC retention time was 5.07 min.

`OC1CCN2Cc3ccccc3N=C12` (configuration not stated): the LC retention time was 2.55 min.

Take `O=C(O)CC(=O)OCC1OC(Oc2cc(O)c3c(=O)cc(-c4ccc(O)c(O)c4)oc3c2)C(O)C(O)C1O` (configuration not stated): the LC retention time is 4.59 min.

With `C[N+]1([O-])CCCC1c1cccnc1` (configuration not stated), the LC retention time was 1.82 min.

As to `CS(=O)CCCCCCCC#N` (configuration not stated), the LC retention time is 4.16 min.

Take `CC1CCC2(C(=O)O)CCC3(C)C(=CCC4C5(C)CC(O)C(O)C(C)(C)C5CCC43C)C2C1C` (configuration not stated): the LC retention time is 9.89 min.

As to `O=C1CC(c2ccccc2)Oc2ccc(O)cc21` (configuration not stated), the LC retention time is 7.17 min.

Consider `CC(C)CC(NC(=O)CN)C(=O)O` (configuration not stated), for which the LC retention time is 2.5 min.

Take `COc1cc(C=CC(=O)NCCCCN=C(N)N)cc(OC)c1O`: the LC retention time is 3.27 min.

Regarding `COc1c2c(cc3c1OCO3)CCN(C)C2`, the LC retention time was 3.33 min.

On to `O=C(C=Cc1ccc(O)cc1)OCC1OC(OC2C(c3c(O)cc4oc(-c5ccc(O)cc5)cc(=O)c4c3O)OC(CO)C(O)C2O)C(O)C(O)C1O` (configuration not stated), for which the LC retention time is 4.21 min.

On to `CC(=O)OC1C(C)CNC2C(C)C3C(CC4C5CCC6CC(OC7OC(CO)C(OC8OC(CO)C(O)C(OC9OCC(O)C(O)C9O)C8OC8OC(CO)C(O)C(O)C8O)C(O)C7O)CCC6(C)C5CCC43C)OC21O` (configuration not stated), for which the LC retention time was 4.29 min.

Consider `O=C(C=Cc1ccc(O)c(O)c1)OC(Cc1ccc(O)c(O)c1)C(=O)O` (configuration not stated), for which the LC retention time is 4.6 min.

As to `CC(C)CC(N)C(=O)O` (configuration not stated), the LC retention time is 1.87 min.

Take `CCC(C)C(=O)OC1C(O)C2C(CN3CC(C)CCC3C2(C)O)C2CC34OC5(O)C(OC(=O)C(C)(O)C(C)OC(C)=O)CCC3(C)C5CC(O)C4C21O` (configuration not stated): the LC retention time is 5.04 min.

For the compound `CCCCCC=CCC=CCCCCCCCC(=O)OCC(O)COP(=O)(O)OCCN` (configuration not stated), the LC retention time is 9.24 min.

For the compound `COc1cc(C(O)C(CO)Oc2c(OC)cc(-c3cc(=O)c4c(O)cc(OC5OC(COC(=O)CC(=O)O)C(O)C(O)C5O)cc4o3)cc2OC)ccc1O` (configuration not stated), the LC retention time was 5.17 min.

Regarding `COc1ccc(CC2COC(=O)C2Cc2ccc(OC3OC(CO)C(O)C(O)C3O)c(OC)c2)cc1OC` (configuration not stated), the LC retention time is 5.18 min.

Regarding `COc1cc(C=O)ccc1OC(C)=O`, the LC retention time was 5.59 min.

Take `COc1cc(-c2cc(=O)c3c(O)c(C4OC(CO)C(O)C(O)C4O)c(OC)cc3o2)ccc1O` (configuration not stated): the LC retention time is 4.21 min.

With `NC(Cc1ccc(O)cc1)C(=O)O` (configuration not stated), the LC retention time is 1.79 min.

For `O=c1c(O)c(-c2ccc(O)cc2)oc2ccccc12`, the LC retention time is 8.56 min.

As for `COc1ccc2ccc(=O)oc2c1CC=C(C)C`, the LC retention time was 8.75 min.

For the compound `CC1(C(=O)O)CCC2(C)CCC3(C)C(=CCC4C5(C)CCC(OC6OC(C(=O)O)C(O)C(O)C6OC6OC(C(=O)O)C(O)C(O)C6O)C(C)(C)C5CCC43C)C2C1` (configuration not stated), the LC retention time is 6.45 min.

Take `CC(CCC1(O)OC2CC3C4CC=C5CC(O)CCC5(C)C4CCC3(C)C2C1C)COC1OC(CO)C(O)C(O)C1O` (configuration not stated): the LC retention time is 6.58 min.

Regarding `COc1ccc(-c2cc(=O)c3c(O)cc(O)cc3o2)cc1-c1c(O)cc(O)c2c(=O)cc(-c3ccc(O)cc3)oc12`, the LC retention time is 6.07 min.

`O=C1CC(c2ccc(O)cc2)Oc2cc(O)ccc21` (configuration not stated): the LC retention time was 5.3 min.

Consider `CC1OC(OCC2OC(Oc3c(-c4ccc(O)c(O)c4)oc4cc(O)cc(O)c4c3=O)C(OC3OCC(O)C(O)C3O)C(O)C2O)C(O)C(O)C1O` (configuration not stated), for which the LC retention time was 3.65 min.

For `CCOC(=O)Oc1c(OC)cc(C(=O)OC2CC3CN4CCc5c([nH]c6cc(OC)ccc56)C4CC3C(C(=O)OC)C2OC)cc1OC` (configuration not stated), the LC retention time is 6.72 min.

As for `NC(Cc1c[nH]c2ccccc12)C(=O)O` (configuration not stated), the LC retention time is 2.8 min.

For `O=C(O)C(Cc1ccccc1)NCC1(O)OC(CO)C(O)C1O` (configuration not stated), the LC retention time was 2.33 min.

On to `CC1OC(OC2C(OC3C(OC4CCC5(C)C(CCC6(C)C5CC=C5C7CC(C)(C)C(OC8OC(C)C(O)C(O)C8O)CC7(C)CCC56C)C4(C)CO)OC(C(=O)O)C(O)C3O)OC(C(=O)O)C(O)C2O)C(O)C(O)C1O` (configuration not stated), for which the LC retention time was 5.68 min.

Regarding `O=C1CC(c2ccccc2O)Oc2ccccc21` (configuration not stated), the LC retention time is 7.45 min.

Regarding `CCN1CC2(OC(=O)c3ccccc3N)CCC(OC)C34C1C(CC23)C1(O)CC(OC)C2CC4C1(O)C2OC` (configuration not stated), the LC retention time was 4.95 min.

Regarding `NC(CCC(=O)NC(Cc1ccc(O)cc1)C(=O)O)C(=O)O` (configuration not stated), the LC retention time was 2.36 min.

Take `CC1CCC2(NC1)OC1CC3C4CC=C5CC(OC6OC(CO)C(O)C(OC7OC(CO)C(O)C(O)C7O)C6OC6OC(C)C(O)C(O)C6O)CCC5(C)C4CCC3(C)C1C2C` (configuration not stated): the LC retention time is 4.62 min.

`C=C1CC(=CC)C(=O)OC2CCN3CC=C(COC(=O)C1(C)O)C23` (configuration not stated): the LC retention time was 3.45 min.

With `C=CCSCC(NC(=O)CCC(N)C(=O)O)C(=O)O` (configuration not stated), the LC retention time is 2.98 min.

With `O=c1cc2oc(-c3ccc(O)cc3)ccc-2c(O)c1`, the LC retention time was 3.87 min.

Take `COc1ccccc1C=CC(=O)O`: the LC retention time was 6.12 min.

On to `COC(=O)C1CC23CCC[N+]4([O-])CCC5(c6ccccc6NC15CC2)C34` (configuration not stated), for which the LC retention time is 4.18 min.

Take `Cc1c2ccncc2c(C)c2c1[nH]c1ccccc12`: the LC retention time is 4.93 min.

For the compound `COc1cc2ccc(=O)oc2c(OC)c1O`, the LC retention time is 4.28 min.

On to `CC1OC(OC2CC(C)(C)CC3C4=CCC5C6(C)CCC(OC7OC(C(=O)O)C(O)C(O)C7OC7OC(CO)C(O)C(O)C7OC7OCC(O)C(O)C7O)C(C)(CO)C6CCC5(C)C4(C)CCC23C)C(O)C(O)C1O` (configuration not stated), for which the LC retention time is 5.56 min.

Turning to `COc1cc(C2c3cc4c(cc3C(OC3OC5COC(C)OC5C(O)C3O)C3COC(=O)C23)OCO4)cc(OC)c1O` (configuration not stated), the LC retention time was 5.4 min.

For `COc1ccc2c(c1OC)C(=O)OC2C1c2cc3c(cc2CCN1C)OCO3` (configuration not stated), the LC retention time is 4.21 min.

Turning to `O=C(O)C1Cc2c([nH]c3ccccc23)CN1` (configuration not stated), the LC retention time is 3.35 min.

In the case of `COc1cccc(-c2oc3cc(OC)ccc3c(=O)c2O)c1`, the LC retention time was 6.75 min.

In the case of `CC1=C(O)C(=O)CC(OC2CC(C)(C)CC3C4=CCC5C6(C)CCC(OC7OC(C(=O)O)C(O)C(O)C7OC7OC(CO)C(O)C(O)C7OC7OC(C)C(O)C(O)C7O)C(C)(CO)C6CCC5(C)C4(C)CCC23C)O1` (configuration not stated), the LC retention time was 7.68 min.

As to `CC1(C)CC(=O)C2(C)CCC3(C)C(=CCC4C5(C)CCC(OC6OC(C(=O)O)C(O)C(O)C6OC6OC(CO)C(O)C(O)C6OC6OC(CO)C(O)C(O)C6O)C(C)(CO)C5CCC43C)C2C1` (configuration not stated), the LC retention time was 7.49 min.

For `CC1CCC2(NC1)OC1CC3C4CC=C5CC(OC6OC(CO)C(OC7OC(CO)C(O)C(OC8OCC(O)C(O)C8O)C7OC7OC(CO)C(O)C(O)C7O)C(O)C6O)CCC5(C)C4CCC3(C)C1C2C` (configuration not stated), the LC retention time was 4.72 min.
